“Also recorded” adds a separate entry of the source. Where only a bound is given, the exact number is not on record here.

One experiment concerns MRL/lpr mice. Briefly: MRL/lpr spontaneous lupus model, Experiment 2. The class given is in vivo. The following applies: for serum anti-dsDNA levels: MRL/lpr mice, Experiment 2, doses per Table 4. Here is the method:
In this SLE experiment, dosing, groups were as described in Table 4 below. Two dose levels of Compound 23 were compared to HCQ and cyclophosphamide (Cytoxan®). HCQ and cyclophosphamide are currently used in the treatment of cutaneous and systemic lupus, respectively. […] Sera were assayed at a 1:600 dilution in PBS. (Mouse Anti-dsDNA Total Ig Qualitative ELISA kits, Alpha Diagnostic International). Dosing was conducted by either oral (p.o.) or intraperitoneal (i.p.) administration.

For experiment [1], the system named is serum IL-6 after s.c. oligo CpG 1668 challenge. The experiment can be described thus: In vivo short term CpG stimulation assay (serum IL-6). Also on record: species or system mice. The following applies: Mus musculus, po, 2 h, mice, oral in water, 20 mg/kg, s.c. 30 micrograms oligo CpG 1668 within 90 minutes, serum two hours later; repeat assays separated by commas; read-out: Percent short-term IL-6 suppression. Here is the method: Short Term CpG Stimulation Assay: Compounds identified as having potency in the HEK/TLR9 and splenocyte CpG 1668 assays described in Example 9, above, were tested in an in vivo short term CpG stimulation assay. Mice were orally administered compound in water, and challenged within 90 minutes by subcutaneous (s.c.) injection of 30 micrograms of oligo CpG 1668. Two hours later serum was taken and assayed for IL-6 using ELISA analysis. Results from assays repeated on different dates are set forth as multiple numbers separated by commas.

Another experiment concerns the target T1, human TLR7 (Homo sapiens, UniProt Q9NYK1).
T1 construct: expressed in transfected cells; host or cells: HEK cell line (HEK293, as in the primary assay)
T1 sequence (Q9NYK1 27-1049): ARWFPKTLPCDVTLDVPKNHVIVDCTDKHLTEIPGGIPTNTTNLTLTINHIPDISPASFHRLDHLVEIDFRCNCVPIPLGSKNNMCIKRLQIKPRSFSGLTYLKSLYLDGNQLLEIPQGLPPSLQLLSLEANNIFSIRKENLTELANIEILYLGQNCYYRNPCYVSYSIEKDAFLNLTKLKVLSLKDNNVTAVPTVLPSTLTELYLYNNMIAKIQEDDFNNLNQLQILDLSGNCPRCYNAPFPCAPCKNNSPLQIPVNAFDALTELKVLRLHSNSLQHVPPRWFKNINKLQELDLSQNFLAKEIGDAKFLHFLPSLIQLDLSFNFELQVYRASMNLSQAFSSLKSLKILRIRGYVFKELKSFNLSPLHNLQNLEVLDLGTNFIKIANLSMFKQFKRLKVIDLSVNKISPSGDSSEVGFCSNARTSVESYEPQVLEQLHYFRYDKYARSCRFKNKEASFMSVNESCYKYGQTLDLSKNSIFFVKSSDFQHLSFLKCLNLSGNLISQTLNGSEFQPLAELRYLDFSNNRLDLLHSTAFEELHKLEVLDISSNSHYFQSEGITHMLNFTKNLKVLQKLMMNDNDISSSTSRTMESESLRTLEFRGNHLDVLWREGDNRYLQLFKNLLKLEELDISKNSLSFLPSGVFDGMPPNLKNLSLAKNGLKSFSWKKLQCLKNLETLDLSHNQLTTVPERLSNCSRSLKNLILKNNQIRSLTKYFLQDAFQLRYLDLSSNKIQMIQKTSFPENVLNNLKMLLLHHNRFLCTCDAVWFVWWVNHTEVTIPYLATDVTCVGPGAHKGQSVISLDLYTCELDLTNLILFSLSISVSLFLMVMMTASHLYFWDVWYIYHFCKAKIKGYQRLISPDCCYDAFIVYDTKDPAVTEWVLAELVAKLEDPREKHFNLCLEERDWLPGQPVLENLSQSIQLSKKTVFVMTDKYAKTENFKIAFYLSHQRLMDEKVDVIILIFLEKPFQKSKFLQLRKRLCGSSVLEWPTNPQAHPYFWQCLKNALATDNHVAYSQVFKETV
Briefly: HEK/TLR7 activation assay (R848 stimulation). The experiment is classed as cell-based. The settings on record: HEK cells transfected with human TLR7. The procedure: (1) HEK/TLR7Activation Assay: The same compounds were tested in the same way as the primary assay with the following differences. The plasmid used to transfect the HEK cell line encoded for human TLR7 instead of TLR9, and R848 was used to stimulate the cells instead of Oligo CpG 2006.

A further experiment concerns the target T2, human TLR9 (Homo sapiens, UniProt Q9NR96).
T2 construct: expressed in transfected cells; host or cells: HEK293 (ATCC No. CRP-1573 [sic])
T2 sequence (Q9NR96 26-1032): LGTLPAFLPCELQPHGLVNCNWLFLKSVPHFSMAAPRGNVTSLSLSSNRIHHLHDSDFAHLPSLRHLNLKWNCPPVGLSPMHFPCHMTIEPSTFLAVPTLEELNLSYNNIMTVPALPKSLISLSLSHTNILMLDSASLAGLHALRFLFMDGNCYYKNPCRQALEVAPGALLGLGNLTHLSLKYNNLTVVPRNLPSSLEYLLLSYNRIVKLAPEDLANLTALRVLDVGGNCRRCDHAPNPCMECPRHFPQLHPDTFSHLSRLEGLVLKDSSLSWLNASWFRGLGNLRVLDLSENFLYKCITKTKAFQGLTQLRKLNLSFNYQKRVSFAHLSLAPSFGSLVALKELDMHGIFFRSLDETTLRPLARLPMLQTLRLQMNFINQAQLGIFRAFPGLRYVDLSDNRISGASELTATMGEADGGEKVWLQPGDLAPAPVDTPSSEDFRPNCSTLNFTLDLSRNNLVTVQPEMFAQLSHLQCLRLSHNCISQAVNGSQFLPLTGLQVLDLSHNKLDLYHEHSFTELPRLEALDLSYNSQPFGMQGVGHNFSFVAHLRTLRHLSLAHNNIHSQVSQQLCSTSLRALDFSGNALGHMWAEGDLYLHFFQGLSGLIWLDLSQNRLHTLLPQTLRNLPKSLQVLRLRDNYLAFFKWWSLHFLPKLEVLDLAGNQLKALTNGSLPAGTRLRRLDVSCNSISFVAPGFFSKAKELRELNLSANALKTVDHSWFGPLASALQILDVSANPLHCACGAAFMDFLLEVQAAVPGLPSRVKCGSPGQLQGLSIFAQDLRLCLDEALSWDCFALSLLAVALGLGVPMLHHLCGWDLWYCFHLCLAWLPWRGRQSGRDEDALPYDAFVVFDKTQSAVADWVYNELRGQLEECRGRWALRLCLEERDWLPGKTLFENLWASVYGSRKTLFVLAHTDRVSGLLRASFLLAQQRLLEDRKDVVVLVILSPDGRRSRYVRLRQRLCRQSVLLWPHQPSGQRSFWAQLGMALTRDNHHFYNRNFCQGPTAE
The experiment can be described thus: Primary assay: HEK/TLR9 activation (NF-kB luciferase reporter, Oligo CpG 2006 stimulation). The class given is cell-based. The following applies: HEK293 transfected with human TLR9 and NF-kB luciferase; compound 30 min before Oligo CpG 2006; overnight; read-out: HEK/TLR9 IC50. The source says: A. Primary Assay. The primary assay involved transfecting human embryonic kidney epithelial (HEK) cells with TLR9. More specifically, HEK293 […] cells (ATCC No. CRP-1573, American Type Culture Collection, Manassas, Va.) were transfected with pcDNA3.1D/V5-His-TOPO® plasmid (Invitrogen, Carlsbad, Calif.) encoding human TLR9 (directly inserted as a Tag polymerase-amplified PCR product) and firefly luciferase under the control of three NF-kB binding sites contained in the E-selectin-1 promoter, which was cloned into a pGL3-Enhancer Vector (Promega Corp, Madison, Wis.). Each compound was added to cells 30 min. before stimulation with Oligo CpG 2006, a synthetic phosphorothioate oligonucleotide (Hartmann et al., J Immunol. 164:1617-24 (2000)), with nucleotide sequence 5′-TCGTCGTTTTGTCGTTTTGTCGTT-3′ (SEQ ID NO:1). The cells were incubated overnight at 37° C. The luciferase substrate Steady-Glo® (Promega) was added to the wells, and luminescence was measured to determine the extent of TLR9-driven gene activation. The luminescence data was used to calculate an IC50 for each sample. The IC50 is defined as the concentration of compound that suppresses the luminescence to 50% of that observed in the absence of compound, in other words, with full stimulation.
For orientation: Reporter assays use an easily measured gene product as a stand-in for the process of interest.

For experiment [2], the system named is mouse spleen IL-6 production in response to Oligo CpG 1668. The experiment can be described thus: Splenocyte CpG 1668 assay (IL-6 ELISA). The experiment is classed as cell-based. The following applies: mouse splenocytes, Oligo CpG 1668, 72 hrs. Here is the method: (2) Splenocyte CpG 1668 Assay: Some of the compounds tested in the primary assay were also assayed for suppression of mouse spleen IL-6 production in response to stimulation with Oligo CpG 1668, a synthetic phosphorothioate oligonucleotide (Krieg et al. Nature. 374:546-9 (1995)), with nucleotide sequence [NT] (SEQ ID NO:2). Each compound was added to dissociated splenocytes before addition of stimulatory oligonucleotide. Cells were stimulated in culture for 72 hrs and the supernatant was removed for ELISA analysis of IL-6 level. Here the IC50 is defined as the concentration of compound that suppresses cytokine production to 50% of that observed in the absence of compound, i.e., full stimulation.

Experiment [3] relates to dissociated mouse splenocytes. The experiment can be described thus: Spleen CellTiter-Glo viability assay. The following applies: Splenocyte, 72 hours, viability (ATP). The experiment is classed as cell-based. Here is the method: (3) Spleen CT Glo Assay: To determine if compounds had adverse effects on living cells, dissociated mouse splenocytes were incubated with some of the compounds for 72 hours. At the end of the incubation Celliter-Glo™ reagent (Promega Corporation, Madison, Wis.) was added and luminescence was read per manufacturer's instructions. This reagent measures ATP as an indication of cell metabolism. Dead cells will not produce signal. IC50 is defined as the concentration of compound that suppresses viability to 50% of that observed in the absence of compound. The few compounds that measurably affected viability did so at concentrations far above those that affected cytokine release in response to TLR9 stimulation.
A general note: In ATP-based viability assays light output follows the ATP content of the culture.

With `CCN(CCO)CCCC(C)Nc1ccnc2cc(Cl)ccc12` (stereo not shown) [hydroxychloroquine], the “serum anti-dsDNA levels” value in the experiment with MRL/lpr mice is “no detectable effect”.
`CN(C)CCCOc1ccc2nc(-c3ccc(OCCCN(C)CCCN(C)C)cc3)oc2c1` [Compound 34]: the inhibition in vivo at 20 mg/kg in experiment [1] is 26%. Moreover, the values for the IC50 against human TLR7 and on human TLR9 were 800 nM and 4 nM, respectively.
As to `CN(C)CCCOc1ccc2nc(-c3ccc(OCCCN(C)CCOCCOCCN(C)C)cc3)oc2c1` [Compound 35], the inhibition in vivo at 20 mg/kg in experiment [1] turned out to be 38%. The IC50 on human TLR7 is 1400 nM; in experiment [2] it was 40 nM; on human TLR9, 29 nM.
`O=P1(N(CCCl)CCCl)NCCCO1` (stereo not shown) [Cyclophosphamide, cyclophosphamide]: in the experiment with MRL/lpr mice (8 and 12 week dosing points), the “difference in serum anti-dsDNA vs. vehicle by ANOVA” value is on record as “statistically significant”. Also, in the experiment with MRL/lpr mice, the “serum anti-dsDNA levels” value is “consistent suppression; also recorded: suppressed anti-dsDNA”.
In the case of `COC[C@H]1CCCN1CCCOc1ccc(-c2nc3ccc(OCCCN4CCC[C@@H]4COC)cc3o2)cc1` [Compound 26], the inhibition in vivo at 20 mg/kg in experiment [1] was found to be 81%. The IC50 in experiment [3] was over 10000 nM; in experiment [2], 42 nM; on human TLR9 it was 12.4 nM.
Consider `CCN(CC)CCN(CC)CCCOc1ccc(-c2nc3ccc(OCCCN(CC)CCN(CC)CC)cc3o2)cc1` [Compound 32], for which the IC50 in experiment [3] is over 10000 nM; at human TLR7, 580 nM; in experiment [2], 10 nM; on human TLR9, 9.6 nM.
The matching figures for `CCCN(C)CCCOc1ccc(-c2nc3ccc(OCCCN(C)CCC)cc3o2)cc1` [Compound 29]: 10400 nM, 780 nM, 42 nM and 19.3 nM.

Values taken from US8354400B2, “Benzoxazole compounds and methods of use” (Eisai R&D Co., Ltd., priority 2008, dated 2013).
